Laboratory results published in publication PMC10600239, “Selective MCL-1 inhibitor ABBV-467 is efficacious in tumor models but is associated with cardiac troponin increases in patients” (Communications Medicine, 2023).
Values joined by “and” are separate entries in the source; they are usually repeats but may differ in a detail not shown here. Identical values can stand only once.

Tested on: AMO-1 xenografts
Experiment: AMO-1 xenograft efficacy (tumor volume, body weight); for Mortality Observation Day 34: key: EUTV: Euthanized: tumor volume
Type: in vivo, mouse
Design: key to Anti-tumor Activity vs. AMO-1 (DSMZ), Median / Anti-tumor Activity vs. AMO-1 (DSMZ), individual animal / Anti-tumor Activity vs. AMO-1 (DSMZ), Mean: tumor volume in mm^3 (length × width^2/2)
Conditions: for Starting Body Wt.: in g (unit assumed)
Method: All animal studies were conducted in accordance with the guidelines approved by the Institutional Animal Care and Use Committees of AbbVie. The research protocol was approved by In Vivo Pharmacology at AbbVie prior to study initiation but was not publicly registered or disclosed. Female C.B-17 SCID-beige mice (AMO-1, OPM-2, NCI-H929, and OCI-AML2 xenografts) and female NSG mice (MV4-11-Red.Fluc systemic) were purchased from Charles River Laboratories (Wilmington, MA). Animals were housed in a light cycle-controlled room with HEPA filtration at 22 °C. Animals had nesting and climbing cage topper as the primary environmental enrichment. Animals were inoculated subcutaneously in the right flank with 5 × 10^6 (AMO-1, OPM-2, NCI-H929, and OCI-AML2) or intravenous (IV) with 5 × 10^6 (MV4-11-Red.Fluc). The inoculation volume (0.2 mL) comprised a 50:50 mixture of cells in growth media and Matrigel (BD Biosciences) for subcutaneous injections and 100% phosphate-buffered saline for IV administration. All cell lines used in this publication were authenticated using IDEXX for STR profiling as well as their IMPACT and human IMPACT panels for pathogen screening. Electronic calipers were used to measure the length and width of each tumor 2 to 3 times per week. Tumor volume was estimated by applying the following equation: volume = length × width^2/2. All groups remained blinded during measurements and dosing; only veterinary staff were aware of group identity. When tumors reached approximately 200 mm^3, mice were randomized by match and distributed into treatment and control groups. All xenograft trials were conducted using 5 to 10 mice per group, and all mice were ear tagged and monitored individually throughout the studies. […] Tumor burden in the systemic MV4-11-Red.Fluc experiment was measured using an IVIS® spectrum from PerkinElmer by taking the total photon flux of the entire dorsal side of an individual mouse. […] A background control mouse that was tumor naive but received D-Luciferin was placed in the upper left corner of each image. The total flux from this animal was subtracted from the total flux of each animal present in the image.
For in vivo studies, maximal tumor growth inhibition (TGI) was calculated as the greatest treatment response using the following equation: Maximal TGI = (1 − mean tumor volume of the treated group/mean tumor volume of the vehicle control group) × 100. The tumor growth delay (TGD) percentage was determined as the percentage increase of the median time period for the treatment group to reach an arbitrary tumor volume of 1000 mm^3 relative to the vehicle control group. […] A power analysis was conducted using historical data to determine the number of animals required to yield significance of 0.05 at a 30% difference. […] Data from experiments in vivo were analyzed using the student’s t-test for TGI values and the Mann–Whitney U test for TGD using Excel and GraphPad Prism. Fisher’s exact test was used to probe significance of differences in response frequency.

[1] = 3.13 mg/kg IV QDx1, Day 13 (day before dosing begins)
[2] = 3.13 mg/kg QDx1 IV, Day 26, n=8
[3] = 3.13 mg/kg QDx1 IV, Day 28, n=8
[4] = 3.13 mg/kg QDx1 IV, SCID-beige mice, Day 21
[5] = 3.13 mg/kg QDx1 IV, SCID-beige mice, Day 23
[6] = 3.13 mg/kg QDx1 IV, SCID-beige mice, Day 23, mean(T)/mean(C)
[7] = 3.13 mg/kg QDx1 IV, SCID-beige mice, Day 23, median(T)/median(C)

## Cc1c(Cl)c2c(Cl)c(C)c1-c1c(-c3ccc(F)cc3)sc3ncnc(c13)O[C@@H](C(=O)O)Cc1cc(ccc1OCc1ccnc(-c3ccc(OC[C@H]4COCCO4)cc3)n1)OC[C@@H](CN1CCN(C)CC1)O2 [Compound A-1747745.0]
3.13 mg/kg IV QDx1, AMO-1 xenograft, SCID-beige mice
  Starting Body Wt.: 21.625
3.13 mg/kg IV QDx1, clinical observation
  % Mortality: 100.00%
3.13 mg/kg IV QDx1, day 13
  Anti-tumor Activity vs. AMO-1 (DSMZ), Mean: 216.27
  Anti-tumor Activity vs. AMO-1 (DSMZ), Median: 216.30
  Anti-tumor Activity vs. AMO-1 (DSMZ), individual animal: 219 and 210 and 215 and 217 and 224 and 221 and 209 and 214
3.13 mg/kg IV QDx1, day 14
  Group Mean, Body Weight: 21.63 g
3.13 mg/kg IV QDx1, day 16
  Anti-tumor Activity vs. AMO-1 (DSMZ), Mean: 205.11
  Anti-tumor Activity vs. AMO-1 (DSMZ), Median: 207.59
  Anti-tumor Activity vs. AMO-1 (DSMZ), individual animal: 195 and 171 and 227 and 217 and 219 and 212 and 203 and 196
3.13 mg/kg IV QDx1, day 19
  Anti-tumor Activity vs. AMO-1 (DSMZ), Mean: 192.25
  Anti-tumor Activity vs. AMO-1 (DSMZ), Median: 202.67
  Anti-tumor Activity vs. AMO-1 (DSMZ), individual animal: 210 and 196 and 181 and 173 and 128 and 213 and 209 and 227
3.13 mg/kg IV QDx1, day 21
  Anti-tumor Activity vs. AMO-1 (DSMZ), Mean: 316.72
  Anti-tumor Activity vs. AMO-1 (DSMZ), Median: 336.29
  Anti-tumor Activity vs. AMO-1 (DSMZ), individual animal: 248 and 370 and 418 and 238 and 111 and 349 and 477 and 324
3.13 mg/kg IV QDx1, day 23
  Anti-tumor Activity vs. AMO-1 (DSMZ), Mean: 463.98
  Anti-tumor Activity vs. AMO-1 (DSMZ), Median: 467.27
  Anti-tumor Activity vs. AMO-1 (DSMZ), individual animal: 595 and 419 and 553 and 359 and 205 and 462 and 647 and 473
  Group Mean, Body Weight: 22.13 g
3.13 mg/kg IV QDx1, day 26
  Anti-tumor Activity vs. AMO-1 (DSMZ), Mean: 740.25
  Anti-tumor Activity vs. AMO-1 (DSMZ), Median: 757.36
  Anti-tumor Activity vs. AMO-1 (DSMZ), individual animal: 859 and 654 and 702 and 664 and 464 and 884 and 882 and 812
3.13 mg/kg IV QDx1, day 28
  Anti-tumor Activity vs. AMO-1 (DSMZ), Mean: 1102.63
  Anti-tumor Activity vs. AMO-1 (DSMZ), Median: 1024.93
  Anti-tumor Activity vs. AMO-1 (DSMZ), individual animal: 1383 and 753 and 968 and 881 and 872 and 1157 and 1725 and 1082
  Group Mean, Body Weight: 22.38 g
3.13 mg/kg IV QDx1, day 30
  Anti-tumor Activity vs. AMO-1 (DSMZ), Mean: 1440.23
  Anti-tumor Activity vs. AMO-1 (DSMZ), Median: 1430.49
  Anti-tumor Activity vs. AMO-1 (DSMZ), individual animal: 1812 and 984 and 1324 and 1150 and 1149 and 1537 and 1916 and 1649
3.13 mg/kg IV QDx1, day 34
  Anti-tumor Activity vs. AMO-1 (DSMZ), Mean: 2233.47
  Anti-tumor Activity vs. AMO-1 (DSMZ), Median: 2203.67
  Anti-tumor Activity vs. AMO-1 (DSMZ), individual animal: 2874 and 1660 and 1699 and 1719 and 1802 and 2605 and 2742 and 2768
[1]
  Xenograft AMO-1 (DSMZ) tumor volume Day 13, Mean: 216.27 mm³
  Xenograft AMO-1 (DSMZ) tumor volume Day 13, Median: 216.30 mm³
3.13 mg/kg IV QDx1, Day 13 (day before dosing begins), mean(T)/mean(C)
  % T/C (mean): 100.07%
3.13 mg/kg IV QDx1, Day 13 (day before dosing begins), median(T)/median(C)
  % T/C (median): 100.06%
3.13 mg/kg IV QDx1, SCID-beige female mice, Day 13 (randomization, day before dosing begins)
  Xenograft AMO-1 (DSMZ) (mm³) Day 13, individual animals: 219 mm³ and 210 mm³ and 215 mm³ and 217 mm³ and 224 mm³ and 221 mm³ and 209 mm³ and 214 mm³
[2]
  Xenograft AMO-1 (DSMZ) tumor volume Day 26, Mean: 740.25 mm³
  Xenograft AMO-1 (DSMZ) tumor volume Day 26, Median: 757.36 mm³
3.13 mg/kg QDx1 IV, Day 26, mean(T)/mean(C)
  % T/C (mean) tumor volume Day 26: 46.99%
3.13 mg/kg QDx1 IV, Day 26, median(T)/median(C)
  % T/C (median) tumor volume Day 26: 47.41%
[3]
  Xenograft AMO-1 (DSMZ) tumor volume Day 28, Mean: 1102.63 mm³
  Xenograft AMO-1 (DSMZ) tumor volume Day 28, Median: 1024.93 mm³
3.13 mg/kg QDx1 IV, Day 28, mean(T)/mean(C)
  % T/C (mean) tumor volume Day 28: 53.81%
3.13 mg/kg QDx1 IV, Day 28, median(T)/median(C)
  % T/C (median) tumor volume Day 28: 53.13%
3.13 mg/kg QDx1 IV, SCID-beige female mice, Day 26
  Xenograft AMO-1 (DSMZ) tumor volume Day 26, individual animals: 859 mm³ and 654 mm³ and 702 mm³ and 664 mm³ and 464 mm³ and 884 mm³ and 882 mm³ and 812 mm³
3.13 mg/kg QDx1 IV, SCID-beige female mice, Day 28
  Xenograft AMO-1 (DSMZ) tumor volume Day 28, individual animals: 1383 mm³ and 753 mm³ and 968 mm³ and 881 mm³ and 872 mm³ and 1157 mm³ and 1725 mm³ and 1082 mm³
[4]
  Xenograft AMO-1 (DSMZ) Day 21, Mean: 316.72 mm³
  Xenograft AMO-1 (DSMZ) Day 21, Median: 336.29 mm³
3.13 mg/kg QDx1 IV, SCID-beige mice, Day 21, individual tumor volumes
  Xenograft AMO-1 (DSMZ) (mm³) Day 21, individual animals: 248 mm³ and 370 mm³ and 418 mm³ and 238 mm³ and 111 mm³ and 349 mm³ and 477 mm³ and 324 mm³
3.13 mg/kg QDx1 IV, SCID-beige mice, Day 21, mean(T)/mean(C)
  % T/C (mean), Tumor Volume Day 21: 49.55%
3.13 mg/kg QDx1 IV, SCID-beige mice, Day 21, median(T)/median(C)
  % T/C (median), Tumor Volume Day 21: 63.86%
[5]
  Xenograft AMO-1 (DSMZ) Day 23 Mean: 463.98 mm³
  Xenograft AMO-1 (DSMZ) Day 23 Median: 467.27 mm³
3.13 mg/kg QDx1 IV, SCID-beige mice, Day 23, individual tumor volumes
  Xenograft AMO-1 (DSMZ) (mm³) Day 23, individual animals: 595 mm³ and 419 mm³ and 553 mm³ and 359 mm³ and 205 mm³ and 462 mm³ and 647 mm³ and 473 mm³
[6]
  % T/C (mean), body weight Day 23: 104.12%
  % T/C (mean), tumor volume Day 23: 43.45%
[7]
  % T/C (median), body weight Day 23: 104.12%
  % T/C (median), tumor volume Day 23: 48.01%
3.13 mg/kg QDx1 IV, Day 30, SCID-beige female mice, tumor volume per animal
  Xenograft AMO-1 (DSMZ) (mm³) Day 30 (individual animals): 1812 mm³ and 984 mm³ and 1324 mm³ and 1150 mm³ and 1149 mm³ and 1537 mm³ and 1916 mm³ and 1649 mm³
3.13 mg/kg QDx1 IV, Day 30, group mean
  Xenograft AMO-1 (DSMZ) (mm³) Day 30 Mean: 1440.23 mm³
3.13 mg/kg QDx1 IV, Day 30, group median
  Xenograft AMO-1 (DSMZ) (mm³) Day 30 Median: 1430.49 mm³
3.13 mg/kg QDx1 IV, Day 34, SCID-beige female mice, tumor volume per animal
  Xenograft AMO-1 (DSMZ) (mm³) Day 34 (individual animals): 2874 mm³ and 1660 mm³ and 1699 mm³ and 1719 mm³ and 1802 mm³ and 2605 mm³ and 2742 mm³ and 2768 mm³
3.13 mg/kg QDx1 IV, Day 34, group mean
  Xenograft AMO-1 (DSMZ) (mm³) Day 34 Mean: 2233.47 mm³
3.13 mg/kg QDx1 IV, Day 34, group median
  Xenograft AMO-1 (DSMZ) (mm³) Day 34 Median: 2203.67 mm³
3.13 mg/kg QDx1 IV, Day 34, per animal
  Mortality Observation Day 34: EUTV
6.25 mg/kg IV QDx1, AMO-1 xenograft, SCID-beige mice
  Starting Body Wt.: 21.625
6.25 mg/kg IV QDx1, clinical observation
  % Mortality: 100.00%
6.25 mg/kg IV QDx1, day 13
  Anti-tumor Activity vs. AMO-1 (DSMZ), Mean: 216.25
  Anti-tumor Activity vs. AMO-1 (DSMZ), Median: 216.39
6.25 mg/kg IV QDx1, day 14
  Group Mean, Body Weight: 21.63 g
6.25 mg/kg IV QDx1, day 16
  Anti-tumor Activity vs. AMO-1 (DSMZ), Mean: 172.06
  Anti-tumor Activity vs. AMO-1 (DSMZ), Median: 173.79
6.25 mg/kg IV QDx1, day 19
  Anti-tumor Activity vs. AMO-1 (DSMZ), Mean: 133.62
  Anti-tumor Activity vs. AMO-1 (DSMZ), Median: 134.81
6.25 mg/kg IV QDx1, day 21
  Anti-tumor Activity vs. AMO-1 (DSMZ), Mean: 175.92
  Anti-tumor Activity vs. AMO-1 (DSMZ), Median: 202.13
6.25 mg/kg IV QDx1, day 23
  Anti-tumor Activity vs. AMO-1 (DSMZ), Mean: 218.85
